The source of these data is patent US20090186810A1, “POTASSIUM CHANNEL MODULATORS AND PLATELET PROCOAGULANT ACTIVITY” (priority 2006, published 2009).

Holding throughout (type): cell-based, human
Assay [1] relates to platelets, collagen plus thrombin induced aggregation. In words: Platelet aggregation (Chronolog aggregometer). The method, then:
(§1) Aggregation was measured at 37° C. in 450 μL samples of a platelet suspension of 2×10^8/mL using an automated model 400 Chronolog aggregometer (Chronolog Corporation, Chicago, USA). After stirring for 2 minutes at 300 rpm, CaCl2 (3 mmol/L) was added, 1 minute later followed by simultaneous addition of 10 μg/mL collagen and 4 nmol/L thrombin. The resulting aggregation was recorded for 5 minutes after which 50 μL ATP-reagent (Boehringer Mannheim ATP Bioluminescence Assay Kit HS II) was added to quantify the release reaction.

The subject of assay [2] is collagen plus thrombin activated platelets. The experiment in a line: Measurement of [Ca2+]i of Fura-2-loaded platelets in suspension. As for the experimental part:
(§2) Platelet isolation was performed as described.^10 Briefly, 10 milliliters (mL) blood was collected in 2 mL anticoagulant ACD (80 mmol/L trisodium citrate, 52 mmol/L citric acid and 180 mmol/L glucose). Platelet rich plasma was obtained by centrifuging whole blood for 15 minutes at 200 g. Platelets were spun down at 11,500× gravity for 2 minutes using a microfuge. The platelet pellet was resuspended and washed twice with 10 mmol/L HEPES, 137 mmol/L NaCl, 2.7 mmol/L KCl, 2 mmol/L MgCl2, 5 mmol/L glucose and 0.5 mg/mL BSA, adjusted at pH 6.6); before each centrifugation step, 100 μL ACD was added to each mL resuspended platelets. Finally, platelets were resuspended in HEPES buffer at pH 7.4. Platelet count was adjusted at 2×10^8 platelets/mL. For measurement of the intracellular Ca^2+ concentration ([Ca^2+]i), platelets were loaded with Fura-2 (3 μmol/L) during 45 minutes at 37° C., prior to isolation.
Platelets (5×10^7/mL) were incubated with K^+ channel inhibitors for 5 minutes, followed by the addition of tirofiban (5 μg/mL) and Ca^2+ (3 mmol/L) and incubated for an additional 5 minutes under stirring conditions. Collagen (10 μg/mL) plus thrombin (5 nmol/L) were then added simultaneously. Changes in [Ca^2+]i of Fura-2-loaded platelets were measured under continuous stirring by dual excitation fluorometry in an SLM-Aminco 8100 spectrofluorimeter (SLM Instruments). Ratio values of fluorescence at 340 and 380 nm excitation, obtained 5 minutes after activation with collagen plus thrombin, were converted to levels of [Ca^2+]i as described.^14 Experiments were performed in triplicate at 37° C.

Assay [3] has the same test system. In words: Flow cytometry, binding of FITC-conjugated annexin A5 (PS exposure). The method, then: as §2
Platelet activation was performed at 37° C. at a concentration of 10^7 platelets/mL in a volume of 0.5 mL under continuous stirring in the presence of 3 mmol/L CaCl2. Platelet agonists used were thrombin (5 nmol/L) plus collagen (10 μg/mL) or ionomycin (1 μmol/L). […]
Samples for flow cytometry were taken simultaneously with samples for the prothrombinase assay from the platelet incubations after 10 minutes activation. To measure PS exposure, samples were diluted 10-fold in HEPES buffer containing 3 mmol/L CaCl2 and incubated with FITC-conjugated Annexin A5 (final concentration 10 nmol/L) for 5 minutes and analyzed for light scatter and fluorescence by a Coulter Epics XL-MLC™ flow cytometer. Light scatter and fluorescence channels were set at logarithmic gain. Scatter parameters and fluorescence intensities were obtained from 10,000 platelets and analyzed off-line using WinMDI version 2.8 software (http://facs.scripps.edu/software.html). Ionomycin activated platelets were used to set a marker for fluorescence intensity of annexin-positive platelets to measure the percentage of annexin-positive platelets after the various incubation procedures. […]
A general note: In flow cytometry, cells or beads pass a laser one at a time.

The subject of assay [4] is platelets, tetracaine-induced PS exposure. In words: Tetracaine-induced prothrombinase activity.
Assay [5] concerns platelets, collagen plus thrombin induced release of ATP. The experiment in a line: Platelet release reaction (ATP bioluminescence). The method, then:
as §1

The subject of assay [6] is platelets, tetracaine-induced PS exposure. The experiment in a line: Tetracaine-induced binding of FITC-conjugated annexin A5.
Assay [7] deals with collagen and thrombin activated platelets. In words: cells. As for the experimental part: as §2
Platelet activation was performed at 37° C. at a concentration of 10^7 platelets/mL in a volume of 0.5 mL under continuous stirring in the presence of 3 mmol/L CaCl2. Platelet agonists used were thrombin (5 nmol/L) plus collagen (10 μg/mL) or ionomycin (1 μmol/L). The effect of different inhibitors was studied by pre-treatment of platelets with the various agents for 30 minutes before starting the activation procedure. For the effects of high extracellular [K^+], platelet suspensions were diluted 20-fold to a concentration of […] in a modified HEPES buffer, referred to as HEPES/KCl buffer (10 mmol/L HEPES, 19.7 mmol/L NaCl, 120 mmol/L KCl, 2 mmol/L MgCl2, 5 mmol/L glucose and 0.5 mg/mL BSA, pH 7.4), activated and assayed for thrombin generation as described before. In some experiments, HEPES buffer was used in which 120 mmol/L NaCl was replaced by 120 mmol/L choline chloride (10 mmol/L HEPES, 17 mmol/L NaCl, 120 mmol/L choline chloride, 2.7 mmol/L KCl, 2 mmol/L MgCl2, 5 mmol/L glucose and 0.5 mg/mL BSA, pH 7.4), referred to as HEPES/Choline buffer.
(§3) Platelet procoagulant activity was assayed as described in more detail elsewhere.^9 Briefly, after activation of 10^7 platelets/mL with collagen (10 μg/mL) and thrombin (4 nmol/L) for 10 minutes, samples were taken and diluted to 10^6 platelets/mL in HEPES buffer containing 3 mmol/L CaCl2 and 0.5 mg/mL BSA. The samples were incubated with 0.2 nmol/L factor Xa and 2 nmol/L factor Va for 1 minute at 37° C. Thrombin formation was initiated by addition of 1 μmol/L prothrombin and arrested after 2 minutes by addition of 10 mmol/L EDTA. Thrombin was measured using the chromogenic substrate S2238.
FIG. 2. illustrates the effect of potassium channel inhibitors on collagen plus thrombin induced platelet procoagulant activity. Platelets at 10^7 ml^−1 were preincubated with various inhibitors for 30 minutes followed by activation with collagen (10 μg/ml) plus thrombin (4 nmol/L) for 10 minutes. Samples from these incubations were diluted 10-fold in HEPES buffer containing 3 mmol/L CaCl2 and subsequently analyzed for prothrombinase activity (A) or percentage of annexin-positive cells (B) as described in the Materials and Methods section above. Valinomycin was added 5 minutes prior to activation of the platelets (to avoid long term effects of this ionophore). Black bars: absence of valinomycin; hatched bars: presence of valinomycin. […] Student's t-test was used to compare data in the presence and absence of valinomycin.

For assay [8], the system named is platelets from a patient with Scott syndrome. The experiment in a line: Prothrombinase activity of platelets from a patient with Scott syndrome. The note with it: valinomycin 3 μmol/L; collagen plus thrombin stimulation; FIG. 5. As for the experimental part: For experiments with platelets from a patient with Scott syndrome, freshly obtained citrated blood from the patient and a control was shipped by airmail and platelets were isolated and used for experiments immediately upon arrival (approx 24 hours after blood donation).
as §3
In FIG. 5, the effect of valinomycin on collagen plus thrombin induced procoagulant activity of platelets from a patient with Scott syndrome is shown. Prothrombinase activities, expressed as nmol/L thrombin formed per minute, were determined after activation with collagen (10 μg/ml) plus thrombin (4 nmol/L) in the absence (black bars) and presence (hatched bars) of valinomycin (3 μmol/L). Data are mean values±1 S.D. (n=6).

Setting [9] is: collagen 10 μg/mL plus thrombin 4 nmol/L, concentration as given in row.

One may read the inhibition as the percentage by which the read-out fell short of the control.

Entries after “also recorded” stand apart in the source; their conditions may differ. Where two headings read alike, the source gives them in different places.

`Clc1ccccc1C(c1ccccc1)(c1ccccc1)n1ccnc1` [clotrimazol, 1-[(2-chlorophenyl)diphenylmethyl]-1H-imidazole]: in assay [1], the “Aggregation % of control (±S.D.)” value is recorded as 90.0 ± 2.8 % of control. Besides, in assay [1] (collagen plus thrombin induced, aggregation and ATP release together), the “effect on aggregation or release, in words” value was “Neither high extracellular [K^+], nor the presence of clotrimazol or charybdotoxin showed an appreciable effect”. For the same molecule, the “Δ[Ca2+]i” value in assay [2] (5 minutes after stimulation with collagen plus thrombin, clotrimazol 10 μmol/L, charybdotoxin 20 nmol/L, control 364±18) worked out at 275 ± 10 nmol/L. Also, the “reduction of the increase in [Ca2+]i versus absence of inhibitors” value in assay [2] (clotrimazol 10 μmol/L) is 24%. In addition, in assay [3], the “extent of annexin binding (mean fluorescence intensity) of the residual PS positive platelets” value is recorded as “remains at the same level” and the “number of PS-exposing (annexin-positive) platelets” value is reported as “decreased”. The “inhibition of tetracaine-induced prothrombinase activity” value in assay [4] is given as “neither clotrimazol nor charybdotoxin could inhibit”. For the same molecule, in assay [5], the “Release (ATP) % of control (±S.D.)” value is given as 91.3 ± 5.0 % of control. The “inhibition of tetracaine-induced binding of FITC-conjugated annexin A5” value in assay [6] is “neither clotrimazol nor charybdotoxin could inhibit”. The inhibition at 10 µM in assay [7] (Homo sapiens, Platelet, read-out: inhibition of the prothrombinase activity of collagen and thrombin activated platelets) was found to be 46 ± 13%.
In the case of `C=C[C@H]1CN2CC[C@H]1C[C@H]2[C@H](O)c1ccnc2ccc(OC)cc12.Cl` [quinine, quinine hydrochloride], the “Aggregation % of control (±S.D.)” value in assay [1] (setting [9]) is listed as 40.0 ± 3.0 % of control. Also, in assay [1] (collagen plus thrombin induced), the “inhibition of the aggregation” value was “approximately 60%”. The “Release (ATP) % of control (±S.D.)” value in assay [5] (setting [9]) is reported as 90.1 ± 4.1 % of control. The “effect on the release, in words” value in assay [5] (collagen plus thrombin induced) is listed as “only a minor effect”.
On to `CC(C)[C@@H]1NC(=O)[C@H](C)OC(=O)[C@@H](C(C)C)NC(=O)[C@@H](C(C)C)OC(=O)[C@H](C(C)C)NC(=O)[C@H](C)OC(=O)[C@@H](C(C)C)NC(=O)[C@@H](C(C)C)OC(=O)[C@H](C(C)C)NC(=O)[C@H](C)OC(=O)[C@@H](C(C)C)NC(=O)[C@@H](C(C)C)OC1=O` [valinomycin], for which the “Δ[Ca2+]i with valinomycin in clotrimazol-preincubated platelets” value in assay [2] (clotrimazol 10 μmol/L plus valinomycin, 5 minutes after collagen plus thrombin) is 326 ± 34 nmol/L. In assay [3] (presence of valinomycin, HEPES/Choline buffer, annexin A5 binding, FIG. 4), the “reversal of the inhibition by clotrimazol and charybdotoxin in HEPES/Choline” value is on record as “virtually annihilated”. Also, the “procoagulant response (prothrombinase activity) of Scott syndrome platelets, in words” value in assay [8] is on record as “significant increase; also recorded: partially restored”. Besides, the “reversal of the inhibition of the procoagulant response by high extracellular [K+]” value in assay [7] (addition of valinomycin, data not shown) is recorded as “not reversed”. For the same molecule, the “reversal of the inhibitory effect of quinine on procoagulant response” value in assay [7] (valinomycin 3 μmol/L, HEPES buffer, FIGS. 2A and B) is on record as “partially abolished”. The “reversal of the inhibition of procoagulant response caused by clotrimazol and charybdotoxin” value in assay [7] (valinomycin 3 μmol/L, HEPES buffer, FIGS. 2A and B (prothrombinase and annexin)) is listed as “completely reversed”. The “procoagulant response of platelets in the absence of a stimulus” value in assay [7] (valinomycin itself) was “did not cause a procoagulant response”.
Regarding “iberiotoxin (QFTDVDCSVSKECWSVCKDLFGVDRGKCMGKKCRCYQ; UniProt P24663 1-37, looked up)”, the “effect on collagen plus thrombin-induced procoagulant (prothrombinase) activity, in words” value in assay [7] (iberiotoxin 200 nmol/L, apamin 500 nmol/L) is “without effect”.
